The text below walks through data of patent publication US12187742B2 (XRAD Therapeutics, Inc., priority 2018, dated 2025).

This assay addresses ATM (Homo sapiens (Human), UniProt Q13315). Nature of the assay: ATM in Cell Western Assay (pKAP1 in etoposide-treated MCF-7 cells). The format is cell-based. The method, then:
Assay of Compounds ATM and DNA-PK Inhibition
ATM in Cell Western Assay:
Next day, add corresponding concentration of compounds using pin tool (Echo 550), the final top concentration is 1 μM, 3-fold series dilution, total 10 doses. Then add etoposide (Sigma, #E1383) to a final concentration of 100 μM. Incubate at 37° C. for 1 hr. Fix cells by adding 25 μL of fixing solution (8% paraformaldehyde) for 20 minutes at ambient temperature. Permeabilize cells for 5 washes with 1×PBS (phosphate buffered saline) containing 0.1% Triton X-100; each wash is for 5 minutes. […] The next day, wash the plate 5 times with 1×PBST (1×PBS containing 0.1% Tween-20). […] Wash the cells for 5 times with 1×PBST (1×PBS containing 0.1% Tween-20) at ambient temperature, using gentle shaking in the dark. After the last wash
remove wash solution, turn plate upside down onto a thin paper towel and centrifuge at 1000 rpm for 1 min to absorb all wash buffer. Clean the bottom of plate with moist lint free paper. Scan plate immediately using ODYSSEY CLx (LI-COR) for the best results.

Setting [1] is: pKAP1 in etoposide-treated MCF-7 cells.
[2] abbreviates: MCF-7 cells, etoposide 100 μM, 1 hr, pKAP1 readout.

Where a name gives a salt, the structure may show the parent alone. Where only a bound is given, the exact number is not on record here.

Chain of ATM (Q13315 whole entry): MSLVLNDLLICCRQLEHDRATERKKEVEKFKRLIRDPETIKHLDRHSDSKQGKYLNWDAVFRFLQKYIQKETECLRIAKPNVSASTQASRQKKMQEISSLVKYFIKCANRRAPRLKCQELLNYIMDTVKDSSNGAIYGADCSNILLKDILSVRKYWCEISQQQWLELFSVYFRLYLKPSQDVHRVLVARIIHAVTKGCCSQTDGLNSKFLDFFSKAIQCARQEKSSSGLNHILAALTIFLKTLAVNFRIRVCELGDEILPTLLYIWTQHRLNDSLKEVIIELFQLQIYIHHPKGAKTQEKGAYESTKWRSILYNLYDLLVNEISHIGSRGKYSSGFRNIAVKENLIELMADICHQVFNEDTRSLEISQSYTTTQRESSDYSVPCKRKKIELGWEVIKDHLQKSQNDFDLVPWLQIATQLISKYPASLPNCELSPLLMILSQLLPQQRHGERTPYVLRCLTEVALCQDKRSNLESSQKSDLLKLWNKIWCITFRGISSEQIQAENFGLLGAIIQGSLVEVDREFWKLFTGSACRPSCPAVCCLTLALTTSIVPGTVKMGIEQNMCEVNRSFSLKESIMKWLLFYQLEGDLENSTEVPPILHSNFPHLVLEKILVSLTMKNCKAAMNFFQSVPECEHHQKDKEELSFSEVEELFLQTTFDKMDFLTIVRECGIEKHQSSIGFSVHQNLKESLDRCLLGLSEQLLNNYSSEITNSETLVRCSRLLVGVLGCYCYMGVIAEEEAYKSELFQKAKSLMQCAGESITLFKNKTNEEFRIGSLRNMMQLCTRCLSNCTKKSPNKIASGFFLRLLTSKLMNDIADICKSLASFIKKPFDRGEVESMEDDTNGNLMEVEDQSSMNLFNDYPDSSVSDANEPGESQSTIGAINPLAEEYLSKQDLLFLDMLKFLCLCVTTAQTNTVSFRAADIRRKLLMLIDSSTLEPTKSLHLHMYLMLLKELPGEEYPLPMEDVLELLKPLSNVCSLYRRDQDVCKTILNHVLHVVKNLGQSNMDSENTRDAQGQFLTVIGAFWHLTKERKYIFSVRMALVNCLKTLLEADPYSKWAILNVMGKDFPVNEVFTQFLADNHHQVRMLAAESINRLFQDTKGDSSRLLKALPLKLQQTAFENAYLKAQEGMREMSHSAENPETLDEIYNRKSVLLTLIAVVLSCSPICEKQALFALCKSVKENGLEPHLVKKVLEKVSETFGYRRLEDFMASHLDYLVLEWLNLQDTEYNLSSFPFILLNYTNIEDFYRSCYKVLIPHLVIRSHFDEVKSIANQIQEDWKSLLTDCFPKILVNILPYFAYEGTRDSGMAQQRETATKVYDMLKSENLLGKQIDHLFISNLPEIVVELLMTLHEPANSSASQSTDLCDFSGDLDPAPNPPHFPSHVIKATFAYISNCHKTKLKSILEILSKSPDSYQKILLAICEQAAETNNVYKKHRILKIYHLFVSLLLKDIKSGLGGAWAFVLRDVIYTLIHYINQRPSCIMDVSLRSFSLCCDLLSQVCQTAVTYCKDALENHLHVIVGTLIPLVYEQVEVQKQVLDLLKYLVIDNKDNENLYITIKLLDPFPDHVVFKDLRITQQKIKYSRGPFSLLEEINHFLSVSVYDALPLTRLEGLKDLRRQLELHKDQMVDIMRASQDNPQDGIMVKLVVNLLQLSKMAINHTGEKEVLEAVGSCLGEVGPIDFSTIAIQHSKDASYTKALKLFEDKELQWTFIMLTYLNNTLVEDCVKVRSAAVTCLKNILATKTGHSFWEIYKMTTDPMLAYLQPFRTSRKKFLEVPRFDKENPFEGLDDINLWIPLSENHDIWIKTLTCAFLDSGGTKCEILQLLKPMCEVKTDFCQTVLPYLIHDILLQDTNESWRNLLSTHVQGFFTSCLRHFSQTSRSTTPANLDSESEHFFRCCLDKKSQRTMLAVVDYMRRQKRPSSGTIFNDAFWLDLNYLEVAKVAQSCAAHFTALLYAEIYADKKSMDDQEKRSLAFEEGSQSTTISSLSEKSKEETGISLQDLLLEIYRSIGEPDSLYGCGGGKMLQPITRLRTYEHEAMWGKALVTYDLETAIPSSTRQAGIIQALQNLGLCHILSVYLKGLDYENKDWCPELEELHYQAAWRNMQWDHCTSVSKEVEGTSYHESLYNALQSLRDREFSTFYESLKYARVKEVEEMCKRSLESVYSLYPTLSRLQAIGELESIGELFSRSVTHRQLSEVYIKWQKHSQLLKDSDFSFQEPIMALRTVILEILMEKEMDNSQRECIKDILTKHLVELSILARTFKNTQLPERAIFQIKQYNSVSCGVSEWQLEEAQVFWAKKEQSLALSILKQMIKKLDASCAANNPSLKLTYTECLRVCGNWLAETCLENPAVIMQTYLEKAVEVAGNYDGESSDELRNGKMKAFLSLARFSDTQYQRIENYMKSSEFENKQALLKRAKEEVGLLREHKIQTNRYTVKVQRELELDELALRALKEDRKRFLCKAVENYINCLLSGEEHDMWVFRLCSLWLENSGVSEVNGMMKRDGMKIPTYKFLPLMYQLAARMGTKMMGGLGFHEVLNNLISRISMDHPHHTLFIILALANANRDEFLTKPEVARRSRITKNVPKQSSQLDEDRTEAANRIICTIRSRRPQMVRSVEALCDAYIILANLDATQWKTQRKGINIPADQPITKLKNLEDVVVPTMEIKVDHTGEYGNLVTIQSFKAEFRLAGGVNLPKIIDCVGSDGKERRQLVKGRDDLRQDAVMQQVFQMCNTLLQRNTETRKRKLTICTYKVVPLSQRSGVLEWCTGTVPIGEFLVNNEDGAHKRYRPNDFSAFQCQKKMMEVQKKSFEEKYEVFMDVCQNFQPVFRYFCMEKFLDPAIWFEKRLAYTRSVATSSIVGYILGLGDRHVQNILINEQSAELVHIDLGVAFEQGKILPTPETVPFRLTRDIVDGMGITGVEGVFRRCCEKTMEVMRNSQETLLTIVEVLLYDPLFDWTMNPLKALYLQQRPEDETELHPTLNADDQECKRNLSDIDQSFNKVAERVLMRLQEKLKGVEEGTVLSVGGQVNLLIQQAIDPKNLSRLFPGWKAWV

In the case of `CN(C)CCCOc1ncc(-c2ccc3ncc4c(c3c2)C2(CN(C(=O)OC(C)(C)C)C2)C(=O)N4C)cc1NS(C)(=O)=O` [Example 479, tert-Butyl 8′-(6-(3-(dimethylamino)propoxy)-5-(methylsulfonamido)pyridin-3-yl)-3′-methyl-2′-oxo-2′,3′-dihydrospiro[azetidine-3,1′-pyrrolo[2,3-c]quinoline]-1-carboxylate], under setting [1], the IC50 is 1 to 100 nM.

Regarding `CNC(=O)c1cc(-c2ccc3ncc4c(c3c2)C2(CCC2)C(=O)N4C)cc(NS(C)(=O)=O)c1OCCCN(C)C` [Example 565, 2-(3-(Dimethylamino)propoxy)-N-methyl-5-(3′-methyl-2′-oxo-2′,3′-dihydrospiro[cyclobutane-1,1′-pyrrolo[2,3-c]quinolin]-8′-yl)-3-(methylsulfonamido)benzamide], the half-inhibitory concentration (IC50) under setting [1] was over 100 nM.

As for `COCCN[C@H]1C[C@@]2(C1)C(=O)N(C)c1cnc3cc(F)c(-c4cnc(OCCNC(C)C)c(NS(C)(=O)=O)c4)cc3c12` [Example 474, trans-N-{5-(7′-Fluoro-3-((2-methoxyethyl)amino)-3′-methyl-2′-oxo-2′,3′-dihydrospiro[cyclobutane-1,1′-pyrrolo[2,3-c]quinolin]-8′-yl)-2-(2-(isopropylamino)ethoxy)pyridin-3-yl)methanesulfonamide], the IC50 under setting [1] was 1 to 100 nM.

In turn, `CC(C)NCCOc1ncc(-c2cc3c(cc2F)ncc2c3[C@]3(C[C@H](c4ccc(=O)[nH]c4)C3)C(=O)N2C)cc1NS(C)(=O)=O` [Example 442, cis-N-(5-(7′-Fluoro-3′-methyl-2′-oxo-3-(6-oxo-1,6-dihydropyridin-3-yl)-2′,3′-dihydrospiro[cyclobutane-1,1′-pyrrolo[2,3-c]quinolin]-8′-yl)-2-(2-(isopropylamino)ethoxy)pyridin-3-yl)methanesulfonamide] showed an IC50 under setting [1] of over 100 nM.

On to `CN[C@H]1C[C@@]2(C1)C(=O)N(C)c1cnc3cc(F)c(-c4cnc(OCCNC(C)C)c(NS(C)(=O)=O)c4)cc3c12` [Example 473, trans-N-(5-(7′-Fluoro-3′-methyl-3-(methylamino)-2′-oxo-2′,3′-dihydrospiro[cyclobutane-1,1′-pyrrolo[2,3-c]quinolin]-8′-yl)-2-(2-(isopropylamino)ethoxy)pyridin-3-yl)methanesulfonamide], for which the IC50 under setting [1] lay in the range of 1 to 100 nM.

As to `CC(C)NCCOc1ncc(-c2cc3c(cc2F)ncc2c3[C@]3(C[C@H](n4cccn4)C3)C(=O)N2C)cc1NS(C)(=O)=O` [Example 476, cis-N-(5-(7′-Fluoro-3′-methyl-2′-oxo-3-(1H-pyrazol-1-yl)-2′,3′-dihydrospiro[cyclobutane-1,1′-pyrrolo[2,3-c]quinolin]-8′-yl)-2-(2-(isopropylamino)ethoxy)pyridin-3-yl)methanesulfonamide], the IC50 under setting [1] is over 100 nM.

`CC(C)NCCOc1ncc(-c2cc3c(cc2F)ncc2c3[C@]3(C[C@@H](N(C)c4ccccc4)C3)C(=O)N2C)cc1NS(C)(=O)=O` [Example 464, trans-N-{5-(7′-Fluoro-3′-methyl-3-(methyl(phenyl)amino)-2′-oxo-2′,3′-dihydrospiro[cyclobutane-1,1′-pyrrolo[2,3-c]quinolin]-8′-yl)-2-(2-(isopropylamino)ethoxy)pyridin-3-yl)methanesulfonamide] showed an IC50 under setting [1] of over 100 nM.

Consider `CC(C)NCCOc1ncc(-c2cc3c4c(cnc3cc2F)N(C)C(=O)C42CN(C[C@H](O)CO)C2)cc1NS(C)(=O)=O` [Example 510, (S)-N-(5-(1-(2,3-Dihydroxypropyl)-7′-fluoro-3′-methyl-2′-oxo-2′,3′-dihydrospiro[azetidine-3,1′-pyrrolo[2,3-c]quinolin]-8′-yl)-2-(2-(isopropylamino)ethoxy)pyridin-3-yl)methanesulfonamide], for which, under setting [1], the IC50 was over 100 nM.

For `CC(C)NCCOc1ncc(-c2cc3c4c(cnc3cc2F)N(C)C(=O)C42CN(C(=O)C(C)C)C2)cc1NS(C)(=O)=O` [Example 512, N-(5-(7′-Fluoro-1-isobutyryl-3′-methyl-2′-oxo-2′,3′-dihydrospiro[azetidine-3,1′-pyrrolo[2,3-c]quinolin]-8′-yl)-2-(2-(isopropylamino)ethoxy)pyridin-3-yl)methanesulfonamide], the IC50 under setting [1] was over 100 nM.

In the case of `CN1C(=O)C2(CC2)c2c1cnc1ccc(-c3cnc(OCCCN4CCCC4)c(NS(=O)(=O)C4CC4)c3)cc21` [Example 60, N-(5-(3-Methyl-2′-oxo-2′,3′-dihydrospiro [cyclopropane-1,1′-pyrrolo[2,3-c]quinolin]-8′-yl)-2-(3-(pyrrolidin-1-yl)propoxy)pyridin-3-yl) cyclopropanesulfonamide], under setting [2], the IC50 lay in the range of 1 to 100 nM.

On to `CC(C)NCCOc1ncc(-c2cc3c4c(cnc3cc2F)N(C)C(=O)C42CN(C3CC3)C2)cc1NS(C)(=O)=O` [Example 496, N-(5-(1-Cyclopropyl-7′-fluoro-3′-methyl-2′-oxo-2′,3′-dihydrospiro[azetidine-3,1′-pyrrolo[2,3-c]quinolin]-8′-yl)-2-(2-(isopropylamino)ethoxy)pyridin-3-yl)methanesulfonamide], for which the IC50 under setting [1] fell in the range of 1 to 100 nM.

On to `CC(C)NCCOc1ncc(-c2cc3c4c(cnc3cc2F)N(C)C(=O)C42COC2)cc1NS(C)(=O)=O` [Example 555, N-(5-(7′-Fluoro-3′-methyl-2′-oxo-2′,3′-dihydrospiro[oxetane-3,1′-pyrrolo[2,3-c]quinolin]-8′-yl)-2-(2-(isopropylamino)ethoxy)pyridin-3-yl)methanesulfonamide hydrochloride], for which, under setting [1], the IC50 is 1 to 100 nM.

For the compound `CO[C@H]1C[C@@]2(C1)C(=O)N(C)c1cnc3cc(F)c(-c4cnc(OCCNC(C)C)c(NS(C)(=O)=O)c4)cc3c12` [Example 386], the IC50 under setting [1] was 1 to 100 nM.

In turn, `Cc1ccc(S(=O)(=O)N(C)c2cc(-c3ccc4ncc5c(c4c3)C3(CCC3)C(=O)N5C)cnc2OCCCN2CCCCC2)cn1` [Example 191, N,6-Dimethyl-N-(5-(3′-methyl-2′-oxo-2′,3′-dihydrospiro [cyclobulane-1,1′-pyrrolo[2,3-c]quinolin]-8′-yl)-2-(3-(piperidin-1-yl)propoxy)pyridin-3-yl)pyridine-3-sulfonamide 2,2,2-trifluoroacetate] had an IC50 under setting [2] of over 100 nM.

Under setting [1], `CC(C)NCCOc1ncc(-c2cc3c4c(cnc3cc2F)N(C)C(=O)C42CN(c3ccc(C(C)(C)C)cc3)C2)cc1NS(C)(=O)=O` [Example 531, N-(5-(1-(4-(ter-Butyl)phenyl)-7′-fluoro-3′-methyl-2′-oxo-2′,3′-dihydrospiro[azetidine-3,1′-pyrrolo[2,3-c]quinolin]-8′-yl)-2-(2-(isopropylamino)ethoxy)pyridin-3-yl)methanesulfonamide] registered an IC50 of 1 to 100 nM.

Under setting [1], `CN1C(=O)C2(CCC2)c2c1cnc1ccc(-c3cnc(N4CC5CN(C(=O)OC(C)(C)C)CC5C4)c(NS(C)(=O)=O)c3)cc21` (stereo not shown) [Example 348, tert-Butyl 5-(5-(3′-methyl-2′-oxo-2′,3′-dihydrospiro [cyclobutane-1,1′-pyrrolo[2,3-c]quinolin]-8′-yl)-3-(methylsulfonamido)pyridin-2-yl) hexahydropyrrolo [3,4-c] pyrrole-2(1H)-carboxylate] had an IC50 of over 100 nM.

The compound `CC(C)NCCOc1ncc(-c2cc3c(cc2F)ncc2c3[C@]3(C[C@@H](N(C)C)C3)C(=O)N2C)cc1NS(C)(=O)=O` [Example 466, trans-N-(5-{3-(Dimethylamino)-7′-fluoro-3′-methyl-2′-oxo-2′,3′-dihydrospiro[cyclobutane-1,1′-pyrrolo[2,3-c]quinolin]-8′-yl)-2-(2-(isopropylamino)ethoxy)pyridin-3-yl)methanesulfonamide] came in with an IC50 under setting [1] of 1 to 100 nM.

Under setting [1], `CC(C)CN1CC2(C1)C(=O)N(C)c1cnc3cc(F)c(-c4cnc(OCCNC(C)C)c(NS(C)(=O)=O)c4)cc3c12` [Example 491, N-(5-(7′-Fluoro-1-isobutyl-3′-methyl-2′-oxo-2′,3′-dihydrospiro[azetidine-3,1′-pyrrolo[2,3-c]quinolin]-8′-yl)-2-(2-(isopropylamino)ethoxy)pyridin-3-yl)methanesulfonamide] yielded an IC50 of 1 to 100 nM.

As for `CN1C(=O)C2(CCC2)c2c1cnc1ccc(-c3cnc(CCCCN4CCCCC4)c(NS(C)(=O)=O)c3)cc21` [Example 269, N-(5-(3′-Methyl-2′-oxo-2′,3′-dihydrospiro[cyclobutane-1,1′-pyrrolo[2,3-c]quinolin]-8′-yl)-2-(4-(piperidin-1-yl)butyl)pyridin-3-yl)methanesulfonamide], the IC50 under setting [2] fell in the range of 1 to 100 nM.

Take `CN1C(=O)C2(CC2)c2c1cnc1ccc(-c3cnc(OCCC[N+](C)(C)[O-])c(NS(=O)(=O)c4ccccc4)c3)cc21` [Example 140, N,N-Dimethyl-3-((5-(3′-methyl-2′-oxo-2′,3′-dihydrospiro[cyclopropane-1,1′-pyrrolo[2,3-c]quinolin]-8′-yl)-3-(phenylsulfonamido)pyridin-2-yl)oxy)propan-1-amine oxide]: the IC50 under setting [2] is 1 to 100 nM.

In turn, `CN1C(=O)C2(CCC2)c2c1cnc1cc(F)c(-c3cnc(OCCNC4CCC4)c(NS(C)(=O)=O)c3)cc21` [Example 377, N-(2-(2-(Cyclobutylamino)ethoxy)-5-(7′-fluoro-3′-methyl-2′-oxo-2′,3′-dihydrospiro[cyclobutane-1,1′-pyrrolo[2,3-c]quinolin]-8′-yl)pyridin-3-yl)methanesulfonamide] came in with an IC50 under setting [1] of over 100 nM.

The compound `CN1C(=O)C2(CCC2)c2c1cnc1ccc(-c3cnc(N4CCC(C)(N5CCCCC5)C4)c(NS(C)(=O)=O)c3)cc21` (racemic) [Example 353, (rac)-N-(5-(3′-Methyl-2′-oxo-2′,3′-dihydrospiro[cyclobutane-1,1′-pyrrolo[2,3-c]quinolin]-8′-yl)-2-(3-methyl-3-(piperidin-1-yl)pyrrolidin-1-yl)pyridin-3-yl)methanesulfonamide hydrochloride] gave an IC50 under setting [1] of over 100 nM.

Usually IC50 stands for the concentration that inhibits the measured activity by half. A lower IC50 goes with inhibition by little substance.
